Assay results from patent US9260439B2, “Dihydropyrrolopyrimidine derivatives” (PFIZER INC., priority 2014, dated 2016).

The compounds below were run against full-length PI3Kα (full-length p110α/p85α) (Homo sapiens (Human), UniProt P42336) (assay: PI3KA_FL fluorescence polarization kinase assay (Ki)). Conditions: 41 μM ATP.
Type: biochemical
Description: Enzyme Production for Biochemical Assays: 1) PI3Kα Complex (Full Length p110α and p85α)(“PI3KA_FL”)
Genes encoding for full length p110α and p85α subunits of PI3Kα complex were subcloned from existing constructs into pFASTBAC Dual vector (Life Technologies, Carlsbad, Calif.) using standard cloning procedures. Gene encoding p110α subunit was subcloned into polyhedrine promoter while gene encoding p85α subunit was subcloned into p10 promoter. Additionally, sequence encoding for histidine tag and Tobacco Etch Virus (“TEV”) cleavage site preceded p110α ORF (Open Reading Frame). Recombinant baculovirus was generated using Bac-to-Bac protocol (Life Technologies, Carlsbad, Calif.) and large scale expression was conducted in Sf21 (Life Technologies, Carlsbad, Calif.) cells at a multiplicity of infection (“MOI”)=1 for 72 hours. Cells were lyzed in 50 mM Tris pH 8.0, 250 mM NaCl, 5% glycerol, 0.25 mM TCEP, and 20 mM imidazole. The PI3Kα complex was purified from clarified supernatant using Immobilized Metalo Affinity Chromatography (“IMAC”). The protein was eluted from the column using 50 mM Tris pH 8.0, 200 mM NaCl, 5% glycerol, 0.25 mM TCEP, and 200 mM imidazole, and further desalted into 50 mM Tris pH 8.0, 20 mM NaCl, and 0.25 mM TCEP prior to loading on MonoQ sepharose (GE Healthcare, Piscataway, N.J.). PI3Kα complex was eluted from MonoQ sepharose over 20 column volumes using 0-30% gradient of buffer B (50 mM Tris pH 8.0, 1 M NaCl, and 0.25 mM TCEP). The peak fractions were pulled together and loaded on Superdex 200 26/60 SEC column equilibrated in 50 mM Tris pH 8.0, 200 mM NaCl, and 0.5 mM TCEP. […] Purity and integrity of the complex was confirmed using LCMS, analytical SEC and SDS-PAGE (sodium dodecyl sulfate polyacrylamide gel electrophoresis) analysis.
The biochemical assays of kinase activity of full-length PI3Kα (full-length p110α/p85a) or truncated PI3Kα (p110α/iSH2 p85a) were conducted using a fluorescence polarization format similar to the procedure of Yuan J., et al., (2011) “PF-04691502, a Potent and Selective Oral Inhibitor of PI3K and mTOR Kinases with Antitumor Activity”, Mol Cancer Ther. 10, 2189-2199. The enzymatic reactions were conducted in 50 μL volumes in 96-well plates. The reactions contained human recombinant PI3Kα (2 nM full-length p110α/p85α or 0.5 nM p110α/iSH2 p85) and 30 μM phosphatidylinositol 4,5-bisphosphate (“PIP2”) (Cayman Chemical Company, Ann Arbor, Mich.) and were sonicated for 1 minute prior to adding PI3Kα enzyme (PI3KA_Act or PI3KA_FL), DMSO or test compound (12-point 3-fold serial dilution, 3 μM top dose, 2° A) DMSO final concentration), 5 mM MgCl2, 50 mM HEPES pH 7.4, 150 mM NaCl, 1 mM DTT ((2S,3S)-1,4-bis(sulfanyl)butane-2,3-diol), and 0.05% 3-[(3-cholamidopropyl)dimethylammonio]-1-propanesulfonate (“CHAPS”). […] The reactions were incubated for 30 min at room temperature, stopped with EDTA pH 8 (10 mM final concentration). In a detection plate, 15 μL of detector/probe mixture, containing 480 nM GST-Grp1 PH domain protein (University of Dundee, Dundee, UK) and 12 nM carboxytetramethylrhodamine (“TAMRA”)-tagged fluorescent phosphatidylinositol (3,4,5)-triphosphate (“PIP3”) (Echelon Biosciences, Inc., Salt Lake City, Utah) in assay buffer, was mixed with 15 μL of kinase reaction mixture. The plate was shaken for 30 minutes and fluorescence polarization values were measured on an LJL Analyst HT plate reader (Molecular Devices, Sunnyvale, Calif.). […] The inhibition constants (Ki) were calculated by fitting fluorescence polarization values, corresponding to initial reaction rates, to the Morrison equation (Morrison, J. F. (1969) Kinetics of the reversible inhibition of enzyme catalysed reactions by tight-binding inhibitors. Biochim. Biophys. Acta 185, 269-286) for tight-binding competitive inhibitors using non-linear regression method (GraphPad Prism, GraphPad Software, San Diego, Calif.).

Chain of full-length PI3Kα (full-length p110α/p85α) (P42336 whole entry): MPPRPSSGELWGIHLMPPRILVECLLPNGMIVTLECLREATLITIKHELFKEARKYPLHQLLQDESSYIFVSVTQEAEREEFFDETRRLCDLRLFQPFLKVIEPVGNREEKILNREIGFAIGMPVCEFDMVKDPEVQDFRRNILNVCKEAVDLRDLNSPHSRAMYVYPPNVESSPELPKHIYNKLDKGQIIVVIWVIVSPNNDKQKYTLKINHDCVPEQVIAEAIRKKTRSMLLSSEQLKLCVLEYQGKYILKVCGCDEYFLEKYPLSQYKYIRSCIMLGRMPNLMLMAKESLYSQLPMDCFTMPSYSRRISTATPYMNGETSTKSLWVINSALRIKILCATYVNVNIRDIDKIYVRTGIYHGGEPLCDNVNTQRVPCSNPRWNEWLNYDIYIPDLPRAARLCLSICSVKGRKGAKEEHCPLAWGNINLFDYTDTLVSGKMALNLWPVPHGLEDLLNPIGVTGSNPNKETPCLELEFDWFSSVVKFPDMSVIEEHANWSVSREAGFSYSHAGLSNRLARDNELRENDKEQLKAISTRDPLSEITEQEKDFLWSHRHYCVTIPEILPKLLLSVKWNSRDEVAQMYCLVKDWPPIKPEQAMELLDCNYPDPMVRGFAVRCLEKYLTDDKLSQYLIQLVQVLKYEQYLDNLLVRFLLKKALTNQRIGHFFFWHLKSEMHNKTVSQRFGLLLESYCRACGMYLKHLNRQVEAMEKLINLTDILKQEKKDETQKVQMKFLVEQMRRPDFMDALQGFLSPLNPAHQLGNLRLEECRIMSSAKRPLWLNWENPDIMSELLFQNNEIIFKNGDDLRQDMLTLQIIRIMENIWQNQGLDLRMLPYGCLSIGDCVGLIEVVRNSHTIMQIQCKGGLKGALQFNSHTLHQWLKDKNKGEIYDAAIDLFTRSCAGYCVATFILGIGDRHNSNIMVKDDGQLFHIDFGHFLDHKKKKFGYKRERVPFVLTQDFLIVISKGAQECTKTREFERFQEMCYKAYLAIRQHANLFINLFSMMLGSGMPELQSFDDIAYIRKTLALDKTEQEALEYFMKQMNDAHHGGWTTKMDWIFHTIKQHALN
Chain of full-length PI3Kα (full-length p110α/p85α) (P27986 whole entry partner): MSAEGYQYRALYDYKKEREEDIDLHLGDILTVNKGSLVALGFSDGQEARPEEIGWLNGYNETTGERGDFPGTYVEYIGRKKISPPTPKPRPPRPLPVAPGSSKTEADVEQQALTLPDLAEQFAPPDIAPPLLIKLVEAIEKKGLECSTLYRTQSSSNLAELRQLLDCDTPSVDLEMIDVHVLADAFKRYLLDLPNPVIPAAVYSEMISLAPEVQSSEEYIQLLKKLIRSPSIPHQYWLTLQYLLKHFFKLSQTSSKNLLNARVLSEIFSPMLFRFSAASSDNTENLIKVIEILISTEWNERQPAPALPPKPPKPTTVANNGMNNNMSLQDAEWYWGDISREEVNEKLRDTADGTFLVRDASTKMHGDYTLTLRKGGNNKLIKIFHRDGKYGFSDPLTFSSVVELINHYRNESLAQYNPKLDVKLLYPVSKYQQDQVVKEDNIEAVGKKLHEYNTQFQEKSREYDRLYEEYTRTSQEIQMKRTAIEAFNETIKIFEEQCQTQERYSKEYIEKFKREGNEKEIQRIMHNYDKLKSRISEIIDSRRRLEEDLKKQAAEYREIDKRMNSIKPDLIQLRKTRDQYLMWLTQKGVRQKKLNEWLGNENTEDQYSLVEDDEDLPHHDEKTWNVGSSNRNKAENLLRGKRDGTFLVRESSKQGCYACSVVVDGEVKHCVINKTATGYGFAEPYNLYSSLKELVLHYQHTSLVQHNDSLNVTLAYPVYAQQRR

`C[C@H](O)C(=O)N1CC[C@H](N2CCc3c(-c4cnc(N)nc4)nc(N4CCOCC4)nc32)C1` [Example 30] and `C[C@@H](O)C(=O)N1CC[C@H](N2CCc3c(-c4cnc(N)nc4)nc(N4CCOCC4)nc32)C1` [Example 41] are within 1.5-fold of each other in “PI3KA_FL Ki” value: 1.188 nM for the first, 1.376 nM for the second.

`CC(C)[C@H](O)C(=O)N1CC[C@H](N2CCc3c(-c4cnc(N)nc4)nc(N4CCOCC4)nc32)C1` [Example 32] and `NC(=O)N1CC[C@H](N2CCc3c(-c4cnc(N)nc4)nc(N4CCOCC4)nc32)C1` [Example 58] are within 1.5-fold of each other in “PI3KA_FL Ki” value: 0.841 nM for the first, 0.794 nM for the second.

`CC(=O)N1CC(N2CCc3c(-c4cnc(N)nc4)nc(N4CCOCC4)nc32)C1` [Example 33] and `NC(=O)N1CC(N2CCc3c(-c4cnc(N)nc4)nc(N4CCOCC4)nc32)C1` [Example 86] are within 1.5-fold of each other in “PI3KA_FL Ki” value: 5.195 nM for the first, 3.673 nM for the second.

Compared with `CO[C@H]1CC[C@H](N2CCc3c(-c4cnc(N)nc4)nc(N4CCOCC4)nc32)CC1` [Example 36], `CO[C@H]1C[C@H](N2CCc3c(-c4cnc(N)nc4)nc(N4CCOCC4)nc32)C1` [Example 40] is 46-fold lower in “PI3KA_FL Ki” value: 19.031 nM for the first, 0.416 nM for the second.

Compared with `C[C@]1(O)C[C@H](N2CCc3c(-c4cnc(N)nc4)nc(N4CCOCC4)nc32)C1` [Example 39], `C[C@]1(O)C[C@@H](N2CCc3c(-c4cnc(N)nc4)nc(N4CCOCC4)nc32)C1` [Example 44] is 2.7-fold higher in “PI3KA_FL Ki” value: 0.738 nM for the first, 1.965 nM for the second.

First: CC(=O)N[C@H]1C(C)(C)[C@@H](N2CCc3c(-c4cnc(N)nc4)nc(N4CCOCC4)nc32)C1(C)C [Example 42]
Second: CC(=O)N[C@@H]1CC[C@H]1N1CCc2c(-c3cnc(N)nc3)nc(N3CCOCC3)nc21 [Example 50]
The “PI3KA_FL Ki” value of the first is 2.4-fold lower: 7.677 nM for the first, 18.596 nM for the second.

`Nc1ncc(-c2nc(N3CCOCC3)nc3c2CCN3[C@H]2CCN(C=O)C2)cn1` [Example 43] and `Nc1ncc(-c2nc(N3CCOCC3)nc3c2CCN3C2CN(C=O)C2)cn1` [Example 62] are within 1.5-fold of each other in “PI3KA_FL Ki” value: 1.310 nM for the first, 0.888 nM for the second.

`Nc1ncc(-c2nc(N3CCOCC3)nc3c2CCN3[C@H]2CCCOC2)cn1` [Example 47] and `Nc1ncc(-c2nc(N3CCOCC3)nc3c2CCN3[C@@H]2CCCOC2)cn1` [Example 48] are within 1.5-fold of each other in “PI3KA_FL Ki” value: 3.320 nM for the first, 3.543 nM for the second.

First: CN([C@H]1C[C@@H](N2CCc3c(-c4cnc(N)nc4)nc(N4CCOCC4)nc32)C1)S(C)(=O)=O [Example 49]
Second: CS(=O)(=O)N[C@H]1C[C@@H](N2CCc3c(-c4cnc(N)nc4)nc(N4CCOCC4)nc32)C1 [Example 107]
The “PI3KA_FL Ki” value of the first is 1.9-fold lower: 0.722 nM for the first, 1.388 nM for the second.

First: CC(=O)N1C[C@@H](N2CCc3c(-c4cnc(N)nc4)nc(N4CCOCC4)nc32)[C@@H](C)C1 [Example 52]
Second: CC(=O)N1C[C@@H](C)[C@@H](N2CCc3c(-c4cnc(N)nc4)nc(N4CCOCC4)nc32)C1 [Example 68]
The “PI3KA_FL Ki” value of the first is 3.4-fold lower: 2.799 nM for the first, 9.393 nM for the second.

First: Nc1ncc(-c2nc(N3CCOCC3)nc3c2CCN3[C@H]2C[C@H](C(N)=O)C2)cn1 [Example 53]
Second: Nc1ncc(-c2nc(N3CCOCC3)nc3c2CCN3[C@H]2C[C@@H](F)C2)cn1 [Example 64]
The “PI3KA_FL Ki” value of the first is 1.5-fold higher: 0.774 nM for the first, 0.508 nM for the second.

Compared with `CC(=O)N1CCC[C@H](N2CCc3c(-c4cnc(N)nc4)nc(N4CCOCC4)nc32)C1` [Example 54], `CC(=O)N1CCC[C@@H](N2CCc3c(-c4cnc(N)nc4)nc(N4CCOCC4)nc32)C1` [Example 55] is 2.2-fold lower in “PI3KA_FL Ki” value: 8.634 nM for the first, 3.904 nM for the second.

`CC(=O)N1C[C@H](C(F)F)[C@H](N2CCc3c(-c4cnc(N)nc4)nc(N4CCOCC4)nc32)C1` [Example 56] and `CC(=O)N1C[C@@H](C(F)F)[C@@H](N2CCc3c(-c4cnc(N)nc4)nc(N4CCOCC4)nc32)C1` [Example 60] are within 1.5-fold of each other in “PI3KA_FL Ki” value: 35.745 nM for the first, 27.752 nM for the second.

`CC(=O)N1C[C@@H](N2CCc3c(-c4cnc(N)nc4)nc(N4CCOCC4)nc32)[C@H](C(F)F)C1` [Example 63] and `CC(=O)N1C[C@H](C(F)F)[C@@H](N2CCc3c(-c4cnc(N)nc4)nc(N4CCOCC4)nc32)C1` [Example 71] are within 1.5-fold of each other in “PI3KA_FL Ki” value: 6.612 nM for the first, 8.899 nM for the second.

First: CC(=O)N[C@H]1CC[C@@H]1N1CCc2c(-c3cnc(N)nc3)nc(N3CCOCC3)nc21 [Example 70]
Second: CS(=O)(=O)[C@H]1CC[C@@H](N2CCc3c(-c4cnc(N)nc4)nc(N4CCOCC4)nc32)C1 [Example 114]
The “PI3KA_FL Ki” value of the first is 3.6-fold higher: 4.601 nM for the first, 1.268 nM for the second.

Going from `Nc1ncc(-c2nc(N3CCOCC3)nc3c2CCN3[C@@H]2CCNC(=O)C2)cn1` [Example 77] to `Nc1ncc(-c2nc(N3CCOCC3)nc3c2CCN3[C@H]2CCNC(=O)C2)cn1` [Example 78], the “PI3KA_FL Ki” value rises from 8.025 nM to 14.681 nM (1.8-fold).

First: CS(=O)(=O)N1CC[C@@H](N2CCc3c(-c4cnc(N)nc4)nc(N4CCOCC4)nc32)C1 [Example 80]
Second: CS(=O)(=O)N1CCC[C@H](N2CCc3c(-c4cnc(N)nc4)nc(N4CCOCC4)nc32)C1 [Example 99]
The “PI3KA_FL Ki” value of the first is 1.7-fold lower: 1.247 nM for the first, 2.122 nM for the second.

First: CNS(=O)(=O)N1CC[C@@H](N2CCc3c(-c4cnc(N)nc4)nc(N4CCOCC4)nc32)C1 [Example 81]
Second: CNS(=O)(=O)N1CCC[C@H](N2CCc3c(-c4cnc(N)nc4)nc(N4CCOCC4)nc32)C1 [Example 91]
The “PI3KA_FL Ki” value of the first is 1.9-fold lower: 0.788 nM for the first, 1.472 nM for the second.

Compared with `C[C@H]1COCCN1c1nc(-c2cnc(N)nc2)c2c(n1)N([C@@H]1CCN(S(C)(=O)=O)C1)CC2` [Example 83], `CC(=O)N1CC[C@H](N2CCc3c(-c4cnc(N)nc4)nc(N4CCOC[C@@H]4C)nc32)C1` [Example 96] is 2.8-fold higher in “PI3KA_FL Ki” value: 0.761 nM for the first, 2.093 nM for the second.

Going from `Nc1ncc(-c2nc(N3CCOCC3)nc3c2CCN3[C@@H]2CCN(S(N)(=O)=O)C2)cn1` [Example 84] to `CCS(=O)(=O)N1CC[C@@H](N2CCc3c(-c4cnc(N)nc4)nc(N4CCOCC4)nc32)C1` [Example 112], the “PI3KA_FL Ki” value falls from 3.507 nM to 0.491 nM (7.1-fold).

`C[C@H]1COCCN1c1nc(-c2cnc(N)nc2)c2c(n1)N(C1CC(F)(F)C1)CC2` [Example 87] and `C[C@H]1COCCN1c1nc(-c2cnc(N)nc2)c2c(n1)N([C@H]1C[C@H](N(C)S(C)(=O)=O)C1)CC2` [Example 90] are within 1.5-fold of each other in “PI3KA_FL Ki” value: 0.462 nM for the first, 0.403 nM for the second.

Going from `CC(C)[C@@H](O)C(=O)N(C)[C@H]1C[C@H](N2CCc3c(-c4cnc(N)nc4)nc(N4CCOC[C@@H]4C)nc32)C1` [Example 94] to `CO[C@@H]1CN(C(C)=O)C[C@H]1N1CCc2c(-c3cnc(N)nc3)nc(N3CCOC[C@@H]3C)nc21` [Example 98], the “PI3KA_FL Ki” value falls from 2.371 nM to 1.244 nM (1.9-fold).

Going from `CNS(=O)(=O)N1CCC[C@@H](N2CCc3c(-c4cnc(N)nc4)nc(N4CCOCC4)nc32)C1` [Example 97] to `CN(C)S(=O)(=O)N1CC(N2CCc3c(-c4cnc(N)nc4)nc(N4CCOCC4)nc32)C1` [Example 110], the “PI3KA_FL Ki” value falls from 3.632 nM to 0.735 nM (4.9-fold).

Compared with `CO[C@@H]1CN(S(C)(=O)=O)C[C@H]1N1CCc2c(-c3cnc(N)nc3)nc(N3CCOC[C@@H]3C)nc21` [Example 103], `CC(C)S(=O)(=O)N1CC(N2CCc3c(-c4cnc(N)nc4)nc(N4CCOCC4)nc32)C1` [Example 116] is 1.7-fold higher in “PI3KA_FL Ki” value: 0.557 nM for the first, 0.961 nM for the second.

`CC(C)[C@@H](O)C(=O)N1CC[C@H](N2CCc3c(-c4cnc(N)nc4)nc(N4CCOCC4)nc32)C1` [Example 31] was tested, and the “PI3KA_FL Ki (nM)” value was “≦0.229 nM”.
`Nc1ncc(-c2nc(N3CCOCC3)nc3c2CCN3[C@H]2C[C@H](F)C2)cn1` [Example 65] was tested, and the “PI3KA_FL Ki (nM)” value was “≦0.229 nM”.
